Where two headings read alike, the source gives them in different places.
Assays:
[1] = target: recombinant SARS-CoV-2 Main protease (Mpro) (Severe acute respiratory syndrome coronavirus 2 (2019-nCoV) (SARS-CoV-2), UniProt P0DTD1); assay: Cov Mpro Biochemical IC50 Assay
SARS-CoV-2-NLuc = assay: microbe, parasite or virus in culture; format: cell-based, SARS Coronavirus 2
[2] = recombinant SARS-CoV-2 Mpro 7.5 nM, fluorogenic peptide substrate 40 μM, read-out: MPro IC50
[3] = Severe acute respiratory syndrome coronavirus, 48 h, read-out: MPro EC50
[4] = recombinant SARS-CoV-2 Mpro, fluorogenic peptide substrate, read-out: MPro IC50
[5] = Severe acute respiratory syndrome coronavirus, 48 h; read-out: MPro EC50

Compound | IC50 [1, 2] [µM] | EC50 (SARS-CoV-2-NLuc; [3]) [µM] | further results
COc1cc(-c2cc3c(s2)c(=O)n(-c2cncc(C(F)(F)F)c2)c(=O)n3CCC#N)c(Cl)cc1F [Example 869] | 0.0239 | 0.0731 | 
Cn1cc(-c2cccc(Cl)c2-c2ccc3c(=O)n(-c4cncc5ccccc45)c(=O)[nH]c3c2)c(C(F)(F)F)n1 [Example 265] |  | 0.0174 | IC50 [1, 4]: 0.0259 µM
Cc1cc(F)cc(Cl)c1-c1cc2[nH]c(=O)n(-c3cncc4ccccc34)c(=O)c2s1 [Example 720] | 0.11 | 0.1 | 
Cc1noc(C)c1-c1cc2[nH]c(=O)n(-c3cncc4ccccc34)c(=O)c2s1 [Example 362] |  | 0.201 | IC50 [1, 4]: 0.0356 µM
COc1cc(-c2cc3c(s2)c(=O)n(-c2cncc4ccccc24)c(=O)n3CC(C)(C)C#N)c(Cl)cc1F [Example 698] | 0.0071 | 0.0141 | 
CC(C)Oc1cncc(-n2c(=O)[nH]c3cc(-c4ccccc4Cl)sc3c2=O)c1 [Example 382] |  | 0.208 | IC50 [1, 4]: 4.6 µM
COc1cc(-c2cc3c(s2)c(=O)n(-c2cncc(F)c2C)c(=O)n3CCC#N)c(Cl)cc1F (single isomer, unassigned) [Example 1026, 3-[6-(2-chloro-4-fluoro-5-methoxy-phenyl)-3-(5-fluoro-4-methyl-3-pyridyl)-2,4-dioxo-thieno[3,2-d]pyrimidin-1-yl]propanenitrile] | 0.00308 |  | EC50 (SARS-CoV-2-NLuc; read-out: MPro EC50): 0.00544 µM
Cc1nn(C2CCNCC2)cc1-c1cccc(Cl)c1-c1ccc2c(=O)n(-c3cncc4ccccc34)c(=O)[nH]c2c1 [Example 472, 7-[2-chloro-6-[3-methyl-1-(4-piperidyl)pyrazol-4-yl]phenyl]-3-(4-isoquinolyl)-1H-quinazoline-2,4-dione] | 0.00511 | 0.188 | 
COc1cc(-c2cc3c(s2)c(=O)n(-c2cncc(C)c2)c(=O)n3CCC#N)c(Cl)cc1F [Example 981] | 0.00138 | 0.00139 | 
N#Cc1cccc(-c2ccc3c(=O)n(-c4cncc5ccccc45)c(=O)[nH]c3c2)c1 [Example 34] |  | 6.53 | IC50 [1, 4]: 1.52 µM
COc1ccc(Cl)c(-c2cc3[nH]c(=O)n(-c4cncc5c(OC)cccc45)c(=O)c3s2)c1 [Example 627] | 1.97 | 4.77 | 
O=c1c2sc(-c3cccc4c3CCC4)cc2n(Cc2ccc(O)cc2)c(=O)n1-c1cncc2ccccc12 [Example 169] |  |  | IC50 [1, 4]: 5.55 µM; EC50 (SARS-CoV-2-NLuc; read-out: MPro EC50): 0.744 µM
O=c1[nH]c2cc(-c3cc(O)ccc3Cl)ccc2c(=O)n1-c1cncc2ccccc12 [Example 296] |  | 1.43 | IC50 [1, 4]: 0.384 µM
COc1cc(-c2cc3[nH]c(=O)n(-c4cncc5cccnc45)c(=O)c3s2)c(Cl)cc1F (single isomer, unassigned) [Example 1009, 6-(2-chloro-4-fluoro-5-methoxy-phenyl)-3-(1,6-naphthyridin-8-yl)-1H-thieno[3,2-d]pyrimidine-2,4-dione] | 0.00399 |  | EC50 (SARS-CoV-2-NLuc; read-out: MPro EC50): 0.00396 µM
C#Cc1cc(F)c(OC)cc1-c1cc2c(s1)c(=O)n(-c1cncc3nnn(C4CC4)c13)c(=O)n2CCC#N [Example 882] | 0.0263 | 0.0697 | 
O=c1[nH]c2cc(-c3c(Cl)cccc3OCc3cscn3)ccc2c(=O)n1-c1cncc2ccccc12 [Example 471, 7-[2-chloro-6-(thiazol-4-ylmethoxy)phenyl]-3-(4-isoquinolyl)-1H-quinazoline-2,4-dione] | 0.0972 |  | EC50 (SARS-CoV-2-NLuc; read-out: MPro EC50): 0.478 µM
O=C1C[C@@H](Nc2ccc3cncc(-n4c(=O)[nH]c5cc(-c6ccccc6Cl)sc5c4=O)c3c2)CN1 [Example 405] | 0.012 | 2.93 | 
Cc1cncc(-n2c(=O)c3sc(-c4ccc(F)cc4C#N)cc3n(CCC#N)c2=O)c1 [Example 880] | 0.0106 |  | EC50 (SARS-CoV-2-NLuc; [5]): 0.0423 µM
COc1ccc(Cl)c(-c2cc3[nH]c(=O)n(-c4cncc5ccn(C)c45)c(=O)c3s2)c1 [Example 455] | 0.00726 | 0.00702 | 
CCn1cc2cncc(-n3c(=O)c4sc(-c5cc(OC)c(F)cc5Cl)cc4n(CCC#N)c3=O)c2n1 [Example 913] | 0.00431 | 0.00453 | 
COc1cc(-c2cc3c(s2)c(=O)n(-c2cncc4nc(C(F)F)n(C)c24)c(=O)n3CCC#N)c(Cl)cc1F [Example 954] | 0.0145 | 0.026 | 
Cc1c(Cl)cncc1-n1c(=O)c2sc(-c3ccccc3C#N)cc2n(CCC#N)c1=O [Example 846] | 0.0125 |  | EC50 (SARS-CoV-2-NLuc; [5]): 0.0373 µM
COc1cc(-c2cc3[nH]c(=O)n(-c4cncc(Cl)c4C)c(=O)c3s2)c(Cl)cc1F [Example 743, 6-(2-chloro-4-fluoro-5-methoxy-phenyl)-3-(5-chloro-4-methyl-3-pyridyl)-1H-thieno[3,2-d]pyrimidine-2,4-dione] | 0.0121 |  | EC50 (SARS-CoV-2-NLuc; [5]): 0.0163 µM

Compound | IC50 [1, 2] [µM] | EC50 (SARS-CoV-2-NLuc; [3]) [µM] | further results
Cc1c2c(-n3c(=O)c4sc(-c5ccc(F)cc5Cl)cc4n(CCC#N)c3=O)cncc2nn1C (single isomer, unassigned) [Example 972, 3-(6-(2-chloro-4-fluorophenyl)-3-(2,3-dimethyl-2H-pyrazolo[3,4-c]pyridin-4-yl)-2,4-dioxo-3,4-dihydrothieno[3,2-d]pyrimidin-1(2H)-yl)propanenitrile] | > 1 |  | EC50 (SARS-CoV-2-NLuc; read-out: MPro EC50): > 1 µM
COc1ccc(Cl)c(-c2cc3[nH]c(=O)n(-c4cncc(C)c4OCC(F)(F)F)c(=O)c3s2)c1 [Example 373] |  |  | IC50 [1, 4]: 0.0146 µM; EC50 (SARS-CoV-2-NLuc; [5]): 0.0469 µM
COc1cc(-c2cc3[nH]c(=O)n(-c4cncc5cccc(F)c45)c(=O)c3cc2OC)c(C#N)cc1F [Example 682] | 0.0202 | 0.033 | 
COc1cc(-c2cc3[nH]c(=O)n(-c4cncc5cccnc45)c(=O)c3s2)c(C#N)cc1F [Example 543] | 0.00991 | 0.24 | 
O=c1[nH]c2cc(-c3ccccc3Cl)sc2c(=O)n1-c1cncc2cn(CC(F)(F)F)nc12 [Example 494] | 0.036 | 0.118 | 
Cc1ccc(Cl)c(-c2cc3[nH]c(=O)n(-c4cncc5ccccc45)c(=O)c3s2)c1 [Example 338] |  | 0.0376 | IC50 [1, 4]: 0.0138 µM
COc1ccc(Cl)c(-c2cc3[nH]c(=O)n(-c4cncc5sc(C(C)(C)O)cc45)c(=O)c3s2)c1 [Example 515] | 0.00851 | 0.0175 | 
COc1cc(-c2cccc(Cl)c2-c2ccc3c(=O)n(-c4cncc5ccccc45)c(=O)[nH]c3c2)cn2ncnc12 [Example 143] |  |  | IC50 [1, 4]: 0.0108 µM; EC50 (SARS-CoV-2-NLuc; [5]): 0.0792 µM
Cc1cc(-c2cccc(Cl)c2-c2cc3[nH]c(=O)n(-c4cncc(C5CC5)c4)c(=O)c3s2)cn2ncnc12 [Example 618] | 0.00656 | 0.016 | 
COc1cc(-c2cc3c(s2)c(=O)n(-c2cncc4nn(C)cc24)c(=O)n3CCC#N)c(Cl)cc1F [Example 909] | 0.00594 | 0.0123 | 
O=c1[nH]c2cc(-c3c(Cl)cccc3-c3ccn4ncnc4c3)ccc2c(=O)n1-c1cncc2ccccc12 [Example 142, 7-[2-chloro-6-([1,2,4]triazolo[1,5-a]pyridin-7-yl)phenyl]-3-(4-isoquinolyl)-1H-quinazoline-2,4-dione] |  | 0.0315 | IC50 [1, 4]: 0.00862 µM
COc1cnc(Cl)c(-c2cc3c(s2)c(=O)n(-c2cncc4cnn(C)c24)c(=O)n3CCC#N)c1 (single isomer, unassigned) [Example 1091, 3-(6-(2-chloro-5-methoxypyridin-3-yl)-3-(1-methyl-1H-pyrazolo[4,3-c]pyridin-7-yl)-2,4-dioxo-3,4-dihydrothieno[3,2-d]pyrimidin-1(2H)-yl)propanenitrile] | 0.141 |  | EC50 (SARS-CoV-2-NLuc; read-out: MPro EC50): 0.451 µM
COCCNc1ccc2cncc(-n3c(=O)[nH]c4cc(-c5ccccc5Cl)sc4c3=O)c2c1 [Example 403] | 0.0069 | 0.0111 | 
N#Cc1cccc(-c2cccc(Cl)c2-c2ccc3c(=O)n(-c4cncc5ccccc45)c(=O)[nH]c3c2)c1 [Example 184] |  | 0.04 | IC50 [1, 4]: 0.0925 µM
CCOc1cc(-c2cc(OC)c(F)cc2Cl)cc2[nH]c(=O)n(-c3cncc4ccccc34)c(=O)c12 [Example 676] | 0.0316 | 0.0253 | 
COc1cc(-c2cc3c(s2)c(=O)n(-c2cnccc2C)c(=O)n3CCC#N)c(Cl)cc1F [Example 987, 3-[6-(2-chloro-4-fluoro-5-methoxy-phenyl)-3-(4-methyl-3-pyridyl)-2,4-dioxo-thieno[3,2-d]pyrimidin-1-yl]propanenitrile] | 0.00568 | 0.00597 | 
COc1cc(-c2cc3c(s2)c(=O)n(-c2cnccc2C)c(=O)n3CCC#N)c(Cl)cc1F (single isomer, unassigned) [Example 1031, 3-[6-(2-chloro-4-fluoro-5-methoxy-phenyl)-3-(4-methyl-3-pyridyl)-2,4-dioxo-thieno[3,2-d]pyrimidin-1-yl]propanenitrile] | 0.0456 |  | EC50 (SARS-CoV-2-NLuc; read-out: MPro EC50): 0.0753 µM
COc1cc(-c2cc3c(s2)c(=O)n(-c2cnccc2C(F)(F)F)c(=O)n3CCC#N)c(Cl)cc1F [Example 861] | 0.0358 | 0.0689 | 
Cc1cccc2cncc(-n3c(=O)[nH]c4cc(-c5ccccc5Cl)sc4c3=O)c12 [Example 558, 6-(2-chlorophenyl)-3-(5-methylisoquinolin-4-yl)thieno[3,2-d]pyrimidine-2,4(1H,3H)-dione] | 0.00339 | 0.0175 | 
O=c1c2sc(-c3ccccc3Cl)cc2[nH]c(=S)n1-c1cncc2ccccc12 [Example 176] |  |  | IC50 ([1]; MPro IC50, recombinant SARS-CoV-2 Mpro, fluorogenic peptide substrate): 0.33 µM; EC50 (SARS-CoV-2-NLuc; [5]): 0.292 µM
O=c1[nH]c2cc(-c3ccccc3Cl)cc(F)c2c(=O)n1-c1cncc2ccccc12 [Example 222] |  | 0.151 | IC50 [1, 4]: 0.153 µM
O=c1[nH]c2cc(-c3c(Cl)cccc3-c3cn4ncnc4c4c3CCC4)sc2c(=O)n1-c1cncc2ccccc12 [Example 520] | < 0.00254 | 0.0146 | 

— US20240116946A1 (Gilead Sciences, Inc., priority 2022, published 2024)
